# Reference: patent publication US20100152531A1, “IMPLANTABLE MEDICAL DEVICE FOR DRUG DELIVERY AND METHOD OF USE” (Paracor Medical, Inc., priority 2008, published 2010)
# Where “and” joins values, the source holds several entries; their conditions need not be identical. Identical values can stand only once. Like-named read-outs stand apart in the source and are kept apart here.
# Tests used:
# [1] = Half life of NONOates (diazeniumdiolates) at 37° C., pH 7.4; type: physicochemical
# Description: Diazeniumdiolates, more commonly referred to as NONOates, have been extremely useful in the investigation of the biological effects of nitric oxide (NO) and related nitrogen oxides. […] FIG. 55 illustrates an exemplary chemical reaction.
# coronaries of pigs = conditions: delivered intrapericardially; cited from earlier work
# mice with aortic banding = conditions: mouse, in vivo; cited from earlier work
# [2] = oral, cited from earlier work
# rats with MI = conditions: cited from earlier work
# [3] = cited from earlier work
# aldosterone receptors = biological target: T1, aldosterone receptors (Homo sapiens, UniProt P08235); conditions: cited from earlier work
# T1 construct: host or cells: heart failure patients (in vivo)
# T1 sequence (P08235 1-984): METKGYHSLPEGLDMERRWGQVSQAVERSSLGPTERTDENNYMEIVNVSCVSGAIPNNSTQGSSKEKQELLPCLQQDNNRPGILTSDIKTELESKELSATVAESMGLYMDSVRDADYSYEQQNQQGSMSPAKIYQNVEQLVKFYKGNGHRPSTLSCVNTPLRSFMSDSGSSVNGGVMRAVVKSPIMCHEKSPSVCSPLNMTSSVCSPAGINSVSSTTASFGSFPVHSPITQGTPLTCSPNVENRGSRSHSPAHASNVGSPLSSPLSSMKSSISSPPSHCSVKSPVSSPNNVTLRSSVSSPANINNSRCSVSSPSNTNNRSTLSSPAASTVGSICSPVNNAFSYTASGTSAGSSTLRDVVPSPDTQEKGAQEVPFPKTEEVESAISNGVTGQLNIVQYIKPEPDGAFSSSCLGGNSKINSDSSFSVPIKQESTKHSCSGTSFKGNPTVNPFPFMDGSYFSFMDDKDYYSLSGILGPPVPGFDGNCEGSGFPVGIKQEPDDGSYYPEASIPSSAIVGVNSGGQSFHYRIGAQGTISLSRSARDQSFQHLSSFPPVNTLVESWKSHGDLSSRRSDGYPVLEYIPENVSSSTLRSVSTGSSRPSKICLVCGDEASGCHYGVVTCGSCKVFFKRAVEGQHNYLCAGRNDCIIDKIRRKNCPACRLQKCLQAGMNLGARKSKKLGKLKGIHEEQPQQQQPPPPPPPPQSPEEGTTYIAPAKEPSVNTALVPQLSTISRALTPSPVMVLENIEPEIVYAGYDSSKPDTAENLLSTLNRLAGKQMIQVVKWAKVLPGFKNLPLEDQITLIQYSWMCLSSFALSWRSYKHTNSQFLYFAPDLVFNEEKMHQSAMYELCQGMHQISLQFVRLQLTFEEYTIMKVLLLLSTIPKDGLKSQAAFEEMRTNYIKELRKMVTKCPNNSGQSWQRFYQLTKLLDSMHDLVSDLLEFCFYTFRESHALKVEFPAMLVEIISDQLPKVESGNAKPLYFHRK
smiles,measurement,setting,value
"COCON=[N+]([O-])N1CCNCC1 [Compound 7, O^2-Methozymethyl 1-(Piperazin-1-yl)diazen-1-ium-1,2-diolate]","Half Life 37° C., pH 7.4",[1],17 days
CC(=O)O[C@H]1C(=O)[C@@]2(C)[C@H]([C@H](OC(=O)c3ccccc3)[C@]3(O)C[C@H](OC(=O)[C@H](O)[C@@H](NC(=O)c4ccccc4)c4ccccc4)C(C)=C1C3(C)C)[C@]1(OC(C)=O)CO[C@@H]1C[C@@H]2O [Paclitaxel],neointimal proliferation in the coronaries in response to balloon injury,coronaries of pigs,inhibit neointimal proliferation
CO[C@H]1C[C@@H]2CC[C@@H](C)[C@@](O)(O2)C(=O)C(=O)N2CCCC[C@H]2C(=O)O[C@H]([C@H](C)C[C@@H]2CC[C@@H](O)[C@H](OC)C2)CC(=O)[C@H](C)/C=C(\C)[C@@H](O)[C@@H](OC)C(=O)[C@H](C)C[C@H](C)/C=C/C=C/C=C/1C [sirolimus],"body weight, lung weight, or liver weight",mice with aortic banding,without affecting
same,patients who experienced side effects (mild to severe),[2]; 2 mg daily,43%
same,patients who experienced side effects (mild to severe),[2]; 5 mg daily,66%
"NCCN(CCN)[N+]([O-])=NO [Compound 5, 1-[N-(2-Aminoethyl)-N-(2-ammonioethyl)amino]diazen-1-ium-1,2-diolate]",half-life,[1]; buffer,20 h
CO[C@H]1C[C@@H]2CC[C@@H](C)[C@@](O)(O2)C(=O)C(=O)N2CCCC[C@H]2C(=O)O[C@H]([C@H](C)C[C@@H]2CC[C@@H](OCCO)[C@H](OC)C2)CC(=O)[C@H](C)/C=C(\C)[C@@H](O)[C@@H](OC)C(=O)[C@H](C)C[C@H](C)/C=C/C=C/C=C/1C [everolimus],EF,rats with MI; compared to untreated MI rats,significant increase
same,LV end-diastolic diameter,rats with MI; compared to untreated MI rats,significant reduction
same,reduction of myocyte size,"rats with MI; rat, in vivo",33%
"CN(C)/[N+]([O-])=N/[O-].[Na+] [Compound 2, Sodium (Z)-1-(N,N-Dimthylanimo)diazen-1-ium-1,2-dilate]","Half Life 37° C., pH 7.4",[1],2 min
NCCCN(CCCN)/[N+]([O-])=N/O [Compound 4],"Half Life 37° C., pH 7.4",[1],3 hrs
"CN(C)[N+]([O-])=N[O-].[Na+] [Compound 1, Sodium 1-(N,N-Dimthylanimo)diazen-1-ium-1,2-dilate]","Half Life 37° C., pH 7.4",[1],0.2 min
CC(=O)S[C@@H]1CC2=CC(=O)CC[C@]2(C)[C@H]2CC[C@@]3(C)[C@@H](CC[C@@]34CCC(=O)O4)[C@H]12 [spironolactone],blood pressure decrease,[3]; doses above 150 mg,no additional decrease
same,incidence of gynecomastia,[3]; doses of 50 mg or less,8.9%
same,incidence of gynecomastia,[3]; doses of 150 mg or higher,52.2%
same,blood pressure decrease,[3]; doses of 25 to 50 mg,5.3% and 8.5%
same,blood pressure decrease,[3]; doses of 75 to 100 mg,12.4% and 12.2%
same,blocking the aldosterone receptors and decreasing atrial natriuretic peptide concentrations,aldosterone receptors; dose of 12.5 to 25 mg daily,effective
same,incidence of serious hyperkalemia,"aldosterone receptors; high-risk heart failure patients, with ACE inhibitor",low incidence
same,risk of both morbidity and death,aldosterone receptors; high-risk heart failure patients,significantly reduced
same,daily dose at which serious hyperkalemia occurs most frequently,aldosterone receptors; in vivo,≥ 50 mg
